Earlier results, collected in patent publication US11760974B2, “Personalized 3D neural culture system for generating human oligodendrocytes and studying myelination in vitro” (The Board of Trustees of the Leland Stanford Junior …, priority 2017, dated 2023).
Each block holds one compound with its values, some of them ahead of it.

Assays:
[1] = biological target: element-binding protein (CBP) (Homo sapiens, UniProt Q92793)
[2] = biological target: T1, Wnt processing and secretion (Porcn) (Homo sapiens, UniProt Q9H237); details: cell-free assay
T1 sequence (Q9H237 1-461): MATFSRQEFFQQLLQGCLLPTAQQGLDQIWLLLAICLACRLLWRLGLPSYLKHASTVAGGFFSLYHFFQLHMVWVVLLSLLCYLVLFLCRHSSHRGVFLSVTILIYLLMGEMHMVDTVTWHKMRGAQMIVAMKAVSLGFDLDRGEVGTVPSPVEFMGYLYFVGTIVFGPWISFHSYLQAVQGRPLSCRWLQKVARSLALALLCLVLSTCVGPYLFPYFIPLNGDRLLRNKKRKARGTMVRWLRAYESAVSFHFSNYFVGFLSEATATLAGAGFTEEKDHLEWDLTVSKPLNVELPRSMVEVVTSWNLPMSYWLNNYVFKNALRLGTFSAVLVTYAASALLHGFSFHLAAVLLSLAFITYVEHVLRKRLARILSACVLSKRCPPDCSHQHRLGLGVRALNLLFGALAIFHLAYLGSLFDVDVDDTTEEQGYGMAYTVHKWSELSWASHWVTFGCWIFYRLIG

Porcn = biological target: T2, Porcn (Homo sapiens, UniProt Q9H237); details: read-out: EC50 Porcn inhibitor
T2 sequence (Q9H237 1-461): T1 sequence (Q9H237 1-461)

[3] = tested on: Wnt pathway in L-cells expressing Wnt3A; details: read-out: IC50 Wnt pathway inhibition
[4] = tested on: Wnt signaling in TM3 cells (PORCN); details: read-out: IC50 Wnt signaling inhibition
TNKS2 = biological target: T3, TNKS2 (Homo sapiens, UniProt Q9H2K2)
T3 sequence (Q9H2K2 1-1166): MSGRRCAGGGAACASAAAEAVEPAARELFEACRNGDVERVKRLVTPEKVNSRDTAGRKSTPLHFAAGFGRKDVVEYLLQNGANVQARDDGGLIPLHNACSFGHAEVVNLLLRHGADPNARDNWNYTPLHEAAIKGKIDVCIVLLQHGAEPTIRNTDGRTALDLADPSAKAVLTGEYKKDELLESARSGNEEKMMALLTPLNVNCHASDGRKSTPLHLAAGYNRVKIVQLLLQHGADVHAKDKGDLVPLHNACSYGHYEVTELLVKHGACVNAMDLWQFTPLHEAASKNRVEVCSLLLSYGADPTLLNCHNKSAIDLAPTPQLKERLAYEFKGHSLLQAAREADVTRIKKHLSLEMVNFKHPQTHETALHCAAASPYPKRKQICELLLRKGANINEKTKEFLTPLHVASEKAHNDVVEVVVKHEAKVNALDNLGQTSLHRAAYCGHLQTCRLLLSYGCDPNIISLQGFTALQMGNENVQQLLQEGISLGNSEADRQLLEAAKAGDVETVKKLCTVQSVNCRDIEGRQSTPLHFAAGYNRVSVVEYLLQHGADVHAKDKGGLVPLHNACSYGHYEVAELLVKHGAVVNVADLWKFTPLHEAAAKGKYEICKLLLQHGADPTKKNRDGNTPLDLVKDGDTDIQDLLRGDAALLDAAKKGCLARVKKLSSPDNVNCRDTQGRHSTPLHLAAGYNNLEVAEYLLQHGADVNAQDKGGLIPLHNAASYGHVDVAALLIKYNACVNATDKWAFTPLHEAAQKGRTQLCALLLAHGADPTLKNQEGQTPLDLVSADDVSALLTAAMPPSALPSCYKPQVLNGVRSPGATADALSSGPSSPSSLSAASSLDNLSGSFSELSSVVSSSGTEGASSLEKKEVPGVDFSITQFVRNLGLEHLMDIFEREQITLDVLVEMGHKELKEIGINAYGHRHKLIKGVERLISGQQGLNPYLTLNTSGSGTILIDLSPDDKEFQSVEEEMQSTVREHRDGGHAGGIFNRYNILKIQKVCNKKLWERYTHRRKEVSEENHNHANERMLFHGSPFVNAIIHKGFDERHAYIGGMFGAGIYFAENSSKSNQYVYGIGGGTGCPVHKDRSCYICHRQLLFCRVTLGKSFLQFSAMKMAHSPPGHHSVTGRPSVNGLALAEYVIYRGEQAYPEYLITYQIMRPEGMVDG

[5] = tested on: PORCN / Wnt3A-mediated TCF-luciferase activation in HEK293 cells; details: read-out: IC50 Wnt3A-mediated activation of TCF-binding site driving luciferase

Chain of element-binding protein (CBP) (Q92793 whole entry): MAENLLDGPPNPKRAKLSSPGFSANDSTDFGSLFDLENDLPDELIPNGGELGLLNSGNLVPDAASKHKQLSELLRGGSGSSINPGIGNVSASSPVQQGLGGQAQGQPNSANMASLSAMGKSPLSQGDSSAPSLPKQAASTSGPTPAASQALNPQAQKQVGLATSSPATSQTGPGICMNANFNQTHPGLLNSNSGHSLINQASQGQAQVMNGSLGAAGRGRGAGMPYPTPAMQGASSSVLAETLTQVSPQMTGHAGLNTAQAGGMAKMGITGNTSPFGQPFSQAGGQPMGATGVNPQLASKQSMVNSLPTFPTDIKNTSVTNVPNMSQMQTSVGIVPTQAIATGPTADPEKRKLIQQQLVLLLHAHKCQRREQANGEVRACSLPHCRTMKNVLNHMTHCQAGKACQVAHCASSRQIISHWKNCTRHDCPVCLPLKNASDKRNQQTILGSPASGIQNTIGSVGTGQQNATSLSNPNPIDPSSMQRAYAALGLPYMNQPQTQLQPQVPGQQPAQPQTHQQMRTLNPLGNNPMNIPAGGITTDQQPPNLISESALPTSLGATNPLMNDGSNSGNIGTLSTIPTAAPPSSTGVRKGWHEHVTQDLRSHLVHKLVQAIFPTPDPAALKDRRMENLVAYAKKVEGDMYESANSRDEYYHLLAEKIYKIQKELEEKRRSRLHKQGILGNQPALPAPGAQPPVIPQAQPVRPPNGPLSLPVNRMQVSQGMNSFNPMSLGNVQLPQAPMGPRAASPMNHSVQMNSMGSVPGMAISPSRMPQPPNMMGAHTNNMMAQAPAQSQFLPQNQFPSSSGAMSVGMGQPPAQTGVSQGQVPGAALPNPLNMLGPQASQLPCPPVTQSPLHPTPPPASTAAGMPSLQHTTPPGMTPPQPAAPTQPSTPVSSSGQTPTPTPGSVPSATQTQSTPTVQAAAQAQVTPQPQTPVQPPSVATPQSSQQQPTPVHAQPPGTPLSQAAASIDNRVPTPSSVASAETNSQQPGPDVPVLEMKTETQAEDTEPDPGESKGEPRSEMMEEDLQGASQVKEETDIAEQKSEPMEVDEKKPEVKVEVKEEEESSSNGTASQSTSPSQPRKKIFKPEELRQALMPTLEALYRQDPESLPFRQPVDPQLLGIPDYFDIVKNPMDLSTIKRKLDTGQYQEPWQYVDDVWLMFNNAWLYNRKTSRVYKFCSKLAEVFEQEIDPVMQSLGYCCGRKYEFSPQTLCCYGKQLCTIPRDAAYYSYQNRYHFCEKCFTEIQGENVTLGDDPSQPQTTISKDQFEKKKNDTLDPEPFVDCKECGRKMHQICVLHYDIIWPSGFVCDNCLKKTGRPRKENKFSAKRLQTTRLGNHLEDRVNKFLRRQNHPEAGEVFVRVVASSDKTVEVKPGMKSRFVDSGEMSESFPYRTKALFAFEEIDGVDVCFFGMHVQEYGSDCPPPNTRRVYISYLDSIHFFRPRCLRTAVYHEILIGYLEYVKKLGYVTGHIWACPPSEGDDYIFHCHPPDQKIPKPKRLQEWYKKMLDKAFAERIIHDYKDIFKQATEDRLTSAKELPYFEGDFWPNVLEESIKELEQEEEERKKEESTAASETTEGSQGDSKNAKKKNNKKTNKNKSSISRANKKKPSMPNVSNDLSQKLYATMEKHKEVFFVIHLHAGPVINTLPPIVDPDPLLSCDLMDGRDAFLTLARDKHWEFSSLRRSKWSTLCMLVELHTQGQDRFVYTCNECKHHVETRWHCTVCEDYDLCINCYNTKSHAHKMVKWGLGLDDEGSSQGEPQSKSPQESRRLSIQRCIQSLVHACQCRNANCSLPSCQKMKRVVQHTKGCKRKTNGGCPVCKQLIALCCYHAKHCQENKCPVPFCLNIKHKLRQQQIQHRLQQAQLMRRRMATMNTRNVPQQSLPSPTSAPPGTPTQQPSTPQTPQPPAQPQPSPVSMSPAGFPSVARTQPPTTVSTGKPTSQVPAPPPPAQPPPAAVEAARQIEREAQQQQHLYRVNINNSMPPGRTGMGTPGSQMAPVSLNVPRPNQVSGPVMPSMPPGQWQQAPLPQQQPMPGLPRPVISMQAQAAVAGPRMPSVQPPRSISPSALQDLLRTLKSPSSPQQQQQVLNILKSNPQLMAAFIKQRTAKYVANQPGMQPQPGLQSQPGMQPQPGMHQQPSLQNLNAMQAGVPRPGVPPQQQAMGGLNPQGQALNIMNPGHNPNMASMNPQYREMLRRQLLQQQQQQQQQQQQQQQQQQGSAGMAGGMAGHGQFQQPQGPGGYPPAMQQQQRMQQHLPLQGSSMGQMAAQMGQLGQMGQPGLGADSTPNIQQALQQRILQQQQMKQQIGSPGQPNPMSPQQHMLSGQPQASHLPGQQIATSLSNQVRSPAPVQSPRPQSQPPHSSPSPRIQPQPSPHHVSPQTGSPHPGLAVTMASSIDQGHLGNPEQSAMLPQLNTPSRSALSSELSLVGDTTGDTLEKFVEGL

Compound: O=C(Nc1cccc2cccnc12)c1ccc(N2C(=O)[C@@H]3[C@H](C2=O)[C@@H]2C=C[C@H]3C2)cc1 [IWR-1-endo]
IC50 [3]: 180 nM

Compound: Cc1cc(-c2ncc(CC(=O)Nc3ccc(-c4cnccn4)cn3)cc2C)ccn1 [LGK-974]
IC50 [4]: 0.4 nM

Compound: Cc1cc(-c2ccc(CC(=O)Nc3ccc(-c4cccnc4)cc3)cc2)ccn1 [Wnt-C59]
IC50 [5]: 0.074 nM

Next, values leading:

IC50 [1]: 3000 nM
Compound: O=C1[C@H](Cc2ccc(O)cc2)N2C(=O)CCN(C(=O)NCc3ccccc3)[C@H]2CN1Cc1cccc2ccccc12 [ICG-001]

IC50 [2]: 27 nM
Compound: Cc1ccc2nc(NC(=O)CSc3nc4c(c(=O)n3-c3ccccc3)SCC4)sc2c1 [IWP-2]

EC50 (Porcn): 0.5 nM
Compound: O=C(CSc1nc2c(c(=O)n1-c1ccccc1)SCC2)Nc1ccc(-c2ccccc2)cn1 [IWP-L6]

IC50 (TNKS2): 15 nM
Compound: COc1ccc(-n2c(SCCCN3C(=O)c4cccc5cccc(c45)C3=O)nnc2-c2ccncc2)cc1 [WIKI4]
